Experiments:
Assay in all cases: Tumor cell growth inhibition panel
Type in all cases: cell-based
CAKI-1 = details: Homo sapiens, Renal
Procedure: (§1) Thus, compound 12 is able to show broad spectrum tumor cell growth inhibitory activity independent of cyclooxygenase inhibition, whereas PDE5 may be the major contributor to such activity.
(§2) The human tumor cell lines were purchased from the American Type Culture Collection (Mansassas, Va.) and maintained in RPMI-1640+2.0 g/L glucose pH 7.4+5% FBS+4 mM glutamine (complete growth medium), incubated at 37° C. in 5% CO2, and passaged at subconfluent density. The human fetal colon FHC cells were cultured in DMEM:F12 medium supplemented with 10% FBS, cholera toxin (10 ng/mL), 5 μg/ml transferrin, 5 μg/ml insulin, and 100 ng/ml hydrocortisone. The passage number was routinely limited to approximately 20 and morphology monitored with each passage, but no additional authentication of the cell lines was performed.
(§3) Cells were plated in 96-well microtiter plates at a density of 5,000 cells per well and allowed to adhere overnight prior to treatment. Cells were treated with a 2-log concentration range of either SS or SBA and incubated for an additional 72 hours. For siRNA assays, cells were transfected in OptiMEM media with 0.5% SureFECT transfection reagent and 200 nmol/L of either negative control or PDE5 siRNA and incubated at 37° C. for 24 h prior to treatment. At the end of the incubation period, relative cell viability was compared to vehicle controls using the Cell Titer Glo Assay (Promega, Madison Wis.), which measures viable cells based on ATP content, according to the manufacturer's specifications.

OVCAR-3 = details: Homo sapiens, Ovarian
Procedure: as §1, §2, §3

M14 = details: Homo sapiens, Melanoma
Procedure: as §1, §2, §3

UACC-62 = details: Homo sapiens, Melanoma
Procedure: as §1, §2, §3

UO-31 = details: Homo sapiens, Renal
Procedure: as §1, §2, §3

IGROV-1 = details: Homo sapiens, Ovarian
Procedure: as §1, §2, §3

PC-3 = details: Homo sapiens, Prostate
Procedure: as §1, §2, §3

MDA-MB-435 = details: Homo sapiens, Melanoma
Procedure: as §1, §2, §3

HOP-92 = details: Homo sapiens, Lung
Procedure: as §1, §2, §3

HCT-116 = details: Homo sapiens, Colon
Procedure: as §1, §2, §3

MDA-MB-231 = details: Homo sapiens, Breast
Procedure: as §1, §2, §3

SF-539 = details: Homo sapiens, CNS
Procedure: as §1, §2, §3

RPMI-8226 = details: Homo sapiens, Hematopoietic
Procedure: as §1, §2, §3

T-47D = details: Homo sapiens, T47D, Breast
Procedure: as §1, §2, §3

BT-549 = details: Homo sapiens, Breast
Procedure: as §1, §2, §3

EKVX = details: Homo sapiens, Lung
Procedure: as §1, §2, §3

NCI-H460 = details: Homo sapiens, Lung
Procedure: as §1, §2, §3

SKOV-3 = details: Homo sapiens, SK-OV-3, Ovarian
Procedure: as §1, §2, §3

NCI-H522 = details: Homo sapiens, Lung
Procedure: as §1, §2, §3

SR = details: Homo sapiens, Hematopoietic
Procedure: as §1, §2, §3

A549 = details: Homo sapiens, Lung
Procedure: as §1, §2, §3

OVCAR-8 = details: Homo sapiens, Ovarian
Procedure: as §1, §2, §3

NCI-H226 = details: Homo sapiens, Lung
Procedure: as §1, §2, §3

TK-10 = details: Homo sapiens, Renal
Procedure: as §1, §2, §3

RXF-393 = details: Homo sapiens, Renal
Procedure: as §1, §2, §3

SK-MEL-28 = details: Homo sapiens, Melanoma
Procedure: as §1, §2, §3

K562 = details: Homo sapiens, Hematopoietic
Procedure: as §1, §2, §3

U251 = details: Homo sapiens, U-251, CNS
Procedure: as §1, §2, §3

NCI-H23 = details: Homo sapiens, Lung
Procedure: as §1, §2, §3

NCI-ADR/RES = details: Homo sapiens; Other, NCI-ADR/RES (adriamycin resistant)
Procedure: as §1, §2, §3

SF-268 = details: Homo sapiens, CNS
Procedure: as §1, §2, §3

HCT-15 = details: Homo sapiens, Colon
Procedure: as §1, §2, §3

SNB-75 = details: Homo sapiens, CNS
Procedure: as §1, §2, §3

HL-60 (TB) = details: Homo sapiens, Hematopoietic
Procedure: as §1, §2, §3

HCC-2998 = details: Homo sapiens, Colon
Procedure: as §1, §2, §3

SW-620 = details: Homo sapiens, Colon
Procedure: as §1, §2, §3

LOX IMV1 = details: Homo sapiens, Melanoma
Procedure: as §1, §2, §3

MOLT-4 = details: Homo sapiens, Hematopoietic
Procedure: as §1, §2, §3

786-0 = details: Homo sapiens, Renal
Procedure: as §1, §2, §3

ACHN = details: Homo sapiens, Renal
Procedure: as §1, §2, §3

SF-295 = details: Homo sapiens, CNS
Procedure: as §1, §2, §3

HOP-62 = details: Homo sapiens, Lung
Procedure: as §1, §2, §3

DU-145 = details: Homo sapiens, Prostate
Procedure: as §1, §2, §3

SK-MEL-2 = details: Homo sapiens, Melanoma
Procedure: as §1, §2, §3

## CC(C)(C)C1=NN(c2ccc(C(=O)O)cc2)C(c2ccc(Cl)cc2Cl)C1 (centres unmarked) [Compound 12, 4-(3-(tert-Butyl)-5-(2,4-dichlorophenyl)-4,5-dihydro-1H-pyrazol-1-yl)benzoic acid]
CAKI-1
  IC50: 87 µM
OVCAR-3
  IC50: 37.8 µM
M14
  IC50: 62.9 µM
UACC-62
  IC50: 42.3 µM
UO-31
  IC50: 55.7 µM
IGROV-1
  IC50: 59 µM
PC-3
  IC50: 55.1 µM
MDA-MB-435
  IC50: 50.8 µM
HOP-92
  IC50: 52.8 µM
HCT-116
  IC50: 39 µM
MDA-MB-231
  IC50: 64.4 µM
SF-539
  IC50: 52.9 µM
RPMI-8226
  IC50: 23.2 µM
T-47D
  IC50: 63 µM
BT-549
  IC50: 54.7 µM
EKVX
  IC50: 57.2 µM
NCI-H460
  IC50: 42.9 µM
SKOV-3
  IC50: 87.4 µM
NCI-H522
  IC50: 50.4 µM
SR
  IC50: 43 µM
A549
  IC50: 58 µM
OVCAR-8
  IC50: 45.8 µM
NCI-H226
  IC50: 56.4 µM
TK-10
  IC50: 74 µM
RXF-393
  IC50: 46.7 µM
SK-MEL-28
  IC50: 72.4 µM
K562
  IC50: 33.2 µM
U251
  IC50: 33.3 µM
NCI-H23
  IC50: 40.6 µM
NCI-ADR/RES
  IC50: 57.2 µM
SF-268
  IC50: 41.1 µM
HCT-15
  IC50: 40.3 µM
SNB-75
  IC50: 67.8 µM
HL-60 (TB)
  IC50: 34.5 µM
HCC-2998
  IC50: 41.9 µM
SW-620
  IC50: 51.8 µM
LOX IMV1
  IC50: 50.5 µM
MOLT-4
  IC50: 20.7 µM
786-0
  IC50: 46.4 µM
ACHN
  IC50: 55.3 µM
SF-295
  IC50: 45.8 µM
HOP-62
  IC50: 37.4 µM
DU-145
  IC50: 59.6 µM
SK-MEL-2
  IC50: 44.5 µM

— US9388139B2, “Derivatives of celeboxib, use thereof and preparation thereof” (German University, priority 2011, dated 2016)
